Data published in article PMC12271471, “Direct synthesis of mycophenolic acid aryl esters with antioxidant and antiproliferative properties” (Scientific Reports, 2025).

Assays:
[1] = tested on: PBMCs; experiment: VPD450 proliferation test (flow cytometry) on PBMCs; format: cell-based, human; details: for EC50: Homo sapiens, PBMC, PBMCs stimulated with anti-CD3/anti-CD28 beads, 72 h, mean ± SD; for SI selectivity index PBMCs (IC50/EC50): ratio between IC50 (XTT) and EC50 (VPD450) on PBMCs
Method: These values indicate the concentration of any compound at which proliferation of PBMCs (healthy cells), and T-Jurkat cells (T-cell leukemia), is inhibited by 50% compared to the control. Cells were treated with the compounds for 72 h (PBMCs) or 48 h (T-Jurkat), followed by a […] VPD450 test. The results are presented in ESI Fig. S3 as proliferation curves concerning concentration.
ESI Figure 3. Concentration-dependent change in proliferation under the treatment of ester derivatives of MPA. (A) VPD450-labelled PBMCs were cultured in the presence of different concentrations (100; 50; 25; 10; 1; 0.1, and 0.01 μM) of MPA, MMF, and ester derivatives, and stimulated with magnetic beads coated with anti-CD3 and anti-CD28 antibodies for 72 hours. (B) VPD450-labelled T-Jurkat cells were cultured in the presence of different concentrations (100; 10; 1; 0.1 and 0.01 μM) of MPA and ester derivatives for 48 hours. The plots were separated based on the type of ester derivative (P or MP). Cell proliferation was analyzed using flow cytometry. The results are expressed […]
(1 picture or pasted object on this page, not shown here) […]
inhibited cell viability by more than 50%. Each experiment was conducted in triplicate, and the final […]
VPD450 dye-based in vitro cell proliferation test
PBMCs and T-Jurkat cells were washed twice with warm PBS (37°C), re-suspended in fresh PBS at a final concentration of 10-30∙10^6 cells/ml, and labelled with 1 µl of VPD450 (BD Biosciences) at 37°C for 15 minutes, with vortexing every 5 minutes to ensure uniform staining. Subsequently, cells were washed with PBS, then with the complete medium (X-VIVO20 for PBMCs and RPMI-1640 for T-Jurkat cells), next re-suspended in fresh complete medium and seeded into 96-well plates at a concentration of 1∙10^6 cells per well. PBMCs were additionally stimulated with magnetic beads coated with anti-CD3 and anti-CD28 antibodies (Invitrogen) at a 2:1 cell-to-bead ratio. To the experimental wells, 100 µl of the MPA derivatives were added to achieve final concentrations of 50, 25, 10, 5, 1, 0.1, and 0.01 µM. In parallel, control wells containing stained but unstimulated cells and stained, stimulated cells were prepared at the same concentration. Cell proliferation was analyzed using an LSRFortessa flow cytometer (BD Biosciences) and Kaluza C Flow Cytometry Analysis Software (Beckman Coulter). […]
Statistical analysis was conducted using GraphPad Prism 9 (GraphPad Software Inc).
Differences between MMF, MPA and its new derivatives were assessed using a two-tailed unpaired Student’s t-test, with statistical significance defined as p < 0.05. EC50 and IC50 values were determined by fitting data to a four-parameter non-linear regression model in GraphPad Prism 9. Statistical significance was evaluated using the t-test.

[2] = tested on: PBMCs; experiment: XTT cytotoxicity test on PBMCs; format: cell-based; details: Homo sapiens, PBMC, 72 h (ESI: 96 h), viability, mean ± SD, read-out: Relative IC50 PBMCs (XTT)
Method: Table 3 presents the IC50 values obtained from the XTT test on PBMCs and the T-Jurkat cell line, using MPA and MMF as standards. These values indicate the concentration of each compound required to reduce the viability of PBMCs (healthy cells) and T-Jurkat cells (T-cell leukemia) by 50% compared to the control. Cells were treated with compounds for 72 h (PBMCs) or 48 h (T-Jurkat), followed by a colorimetric XTT test. The results are illustrated in ESI Fig. S2 as a viability curve in relation to concentration.
Biological evaluation — PBMC and T-Jurkat cells […]
Human peripheral blood mononuclear cells (PBMCs) were isolated from buffy coats provided by anonymous, healthy volunteers with an average age of 35±4 years during routine transfusion procedure. These samples were received by the Authors from the Regional Centre for Blood Donation and Treatment in Gdańsk (Poland). […]
solely for PBMCs isolation. PBMCs were suspended in a complete X-VIVO medium, consisting of X-VIVO20, 10% heat-inactivated human AB serum, penicillin (100 U/ml), and streptomycin ([…]).
MPA derivatives preparation
To achieve the desired concentrations of the tested compounds, the substances were first dissolved in DMSO to reach a final concentration of 0.01 M. The solutions were then diluted in the appropriate additive-free medium (RPMI-1640 for T-Jurkat cells and X-VIVO20 for PBMCs) to obtain […]
Peripheral blood mononuclear cells were isolated by gradient centrifugation, as described previously. Buffy coats were diluted with phosphate-buffered saline (PBS, pH = 7.4, ThermoFisher Scientific) in a 1:1 ratio, layered at Ficoll-Paque™ PLUS (VWR International), and centrifuged at 800 × g for 20 minutes. The PBMC layer was collected and washed twice with PBS (1st wash: 600 × g for 10 minutes; 2nd wash: 600 × g for 5 minutes). Cell amount and viability were assessed using the Bio-Rad TC20™ automated cell counter combined with trypan blue staining.
XTT dye-based in vitro cytotoxicity test
The cytotoxic effects of mycophenolic acid (MPA) derivatives were assessed using an in vitro XTT-based assay (Roche). PBMCs in complete X-VIVO20 medium and T-Jurkat cells in complete RPMI-1640 medium were seeded into 96-well plates at a concentration of 5∙10^5 cells/50 µl per well. 50 µl of tested compounds were added to the experimental wells to achieve final concentrations of 50, 25, 10, 5, 1, 0.1, and 0.01 µM. The background control consisted of the medium without cells, while untreated cells served as the positive control. After incubating for 48 hours for T-Jurkat cells and 96 hours for PBMCs in a humidified atmosphere with 5% CO2 at 37°C, 50 µl of freshly prepared XTT reagent was added to all wells according to the manufacturer's instructions. The plates were then incubated for an additional 24 hours under the same conditions. The conversion of the water-soluble yellow XTT tetrazolium salt to orange formazan was quantified by measuring the optical density (OD) at 450 nm using an Agilent BioTek Epoch Microplate Spectrophotometer (Agilent Technologies), with a reference wavelength of 690 nm. The results were expressed as IC50 values for compounds that […]
inhibited cell viability by more than 50%. […]
PBMCs were suspended in a 15 mL centrifuge tube at a concentration of 10-30 × 10⁶ cells in 1 mL of PBS, then, 2 μL of 1 mM VPD 450 dye solution was added, incubated for 15 min at 37°C, washed with a 9-fold volume of warm PBS and centrifuged at 400 x g for 5 min. Then, the cells were suspended in 10 mL of X-VIVO medium with 10% FBS and centrifuged again at 400 x g for 5 min. After suspending the cells in the complete medium, the staining level was checked using flow cytometry. The cells thus obtained were stimulated with anti-CD3/anti-CD28 antibodies as described previously (see VPD450 dye-based in vitro cell proliferation test). To perform the GMP test, a proper amount of GMP was added to each well to reach its final concentration of 50 μM, and then incubated for 72 hours. Proliferative […]

Compound	EC50 [1] [µM]	SI selectivity index PBMCs (IC50/EC50) [1]	IC50 [2] [µM]
COc1c(C)c2c(c(O)c1C/C=C(\C)CCC(=O)OCCN1CCOCC1)C(=O)OC2 [MMF, mycophenolate mofetil, reference compound]	1.037 ± 0.006	16.020	16.61 ± 0.041
COc1ccccc1OC(=O)CC/C(C)=C/Cc1c(O)c2c(c(C)c1OC)COC2=O [MP1]	1.106 ± 0.004	13.365	14.78 ± 0.016
COc1cccc(OC)c1OC(=O)CC/C(C)=C/Cc1c(O)c2c(c(C)c1OC)COC2=O [MP2]	5.395 ± 0.006	4.174	22.52 ± 0.039
COc1cc(C=O)cc(OC)c1OC(=O)CC/C(C)=C/Cc1c(O)c2c(c(C)c1OC)COC2=O [MP3]	13.742 ± 0.005	0.770	10.59 ± 0.04
COc1cc(C=O)ccc1OC(=O)CC/C(C)=C/Cc1c(O)c2c(c(C)c1OC)COC2=O [MP4]	2.9 ± 0.005	8.098	23.484 ± 0.015
COC(=O)/C=C/c1ccc(OC(=O)CC/C(C)=C/Cc2c(O)c3c(c(C)c2OC)COC3=O)c(OC)c1 [MP7]	7.734 ± 0.007	3.935	30.43 ± 0.044
C=CCc1ccc(OC(=O)CC/C(C)=C/Cc2c(O)c3c(c(C)c2OC)COC3=O)c(OC)c1 [MP8]	1.154 ± 0.003	15.409	17.782 ± 0.011
C/C=C/c1ccc(OC(=O)CC/C(C)=C/Cc2c(O)c3c(c(C)c2OC)COC3=O)c(OC)c1 [MP9]	2.356 ± 0.003	8.978	21.153 ± 0.015
COc1c(C)c2c(c(O)c1C/C=C(\C)CCC(=O)O)C(=O)OC2 [MPA, Mycophenolic acid]	1.154 ± 0.006	16.232	18.73 ± 0.03
COc1c(C)c2c(c(O)c1C/C=C(\C)CCC(=O)Oc1ccc3c(c1)OCO3)C(=O)OC2 [P1]	1.152 ± 0.004	108.919	125.48 ± 0.025
COc1c(C)c2c(c(O)c1C/C=C(\C)CCC(=O)Oc1cc(C)ccc1C(C)C)C(=O)OC2 [P2]	1.417 ± 0.003	11.538	16.349 ± 0.01
COC(=O)/C=C/c1ccccc1OC(=O)CC/C(C)=C/Cc1c(O)c2c(c(C)c1OC)COC2=O [P4]	4.865 ± 0.004	5.321	25.887 ± 0.017
COc1c(C)c2c(c(O)c1C/C=C(\C)CCC(=O)Oc1ccc(C=O)cc1)C(=O)OC2 [P5]	1.656 ± 0.003	6.007	9.948 ± 0.046
COc1c(C)c2c(c(O)c1C/C=C(\C)CCC(=O)Oc1ccc(CCC(C)=O)cc1)C(=O)OC2 [P7]	1.047 ± 0.006	48.036	50.294 ± 0.019
